Experimental data taken from publication PMC6364417, “Kinase inhibitor library screening identifies synergistic drug combinations effective in sensitive and resistant melanoma cells” (Journal of Experimental & Clinical Cancer Research : CR, 2019).

Columns and labels:
Test in all cases: Kinase inhibitor library screening, PrestoBlue cell viability, 1 or 10 μM, 72 h
501Mel cells (parental) = settings: 72 h
Procedure: (§1) After 72 h of treatment, cell viability was assessed using the PrestoBlue Cell Viability Reagent (ThermoFisher Scientific). Measurements were performed with the CLARIOstar Monochromator microplate reader (BMG Labtech).
(§2) Kinase inhibitor library screening. […] Each cell line was treated in its sensitive form (parental), and also as 2 resistant derivatives, which were made resistant to either Vemurafenib (XP) or Dabrafenib (GP). Drugs were added at 2 different concentrations, 1 and 10 μM, for 72 h and cell viability was assessed using the PrestoBlue Cell Viability assay. Results are depicted as % viability compared to untreated cells. Each cell line was analyzed at least in duplicate. […] (XLSX 95 kb)

[1] = test system: 501Mel-GP cells (Dabrafenib-resistant); settings: 72 h
Procedure: as §1, §2

[2] = test system: 501Mel-XP cells (Vemurafenib-resistant); settings: 72 h
Procedure: as §1, §2

A375 cells (parental) = test system: A375 cells (parental)
Procedure: as §1, §2

[3] = test system: A375-GP cells (Dabrafenib-resistant)
Procedure: as §1, §2

[4] = test system: A375-XP cells (Vemurafenib-resistant)
Procedure: as §1, §2

IGR37 cells (parental) = test system: IGR37 cells (parental)
Procedure: as §1, §2

[5] = test system: IGR37-GP cells (Dabrafenib-resistant)
Procedure: as §1, §2

[6] = test system: IGR37-XP cells (Vemurafenib-resistant)
Procedure: as §1, §2

[7] = IGR37 Parental, 1μΜ, 72 h, in %

## CN(C)Cc1cccc(N/C(=C2\C(=O)Nc3cc(C(N)=O)ccc32)c2ccccc2)c1 [BIX 02188]
501Mel cells (parental); Homo sapiens, read-out: cell viability, 501Mel Parental, 1μΜ
  viability at 1 µM: 95.5%
501Mel cells (parental); Homo sapiens, read-out: cell viability, 501Mel Parental, 10μΜ
  viability at 10 µM: 91.7%
[1]; Homo sapiens, read-out: cell viability, 501Mel GP, 1μΜ
  viability at 1 µM: 104%
[1]; Homo sapiens, read-out: cell viability, 501Mel GP, 10μΜ
  viability at 10 µM: 96.3%
[2]; Homo sapiens, read-out: cell viability, 501Mel XP, 1μΜ
  viability at 1 µM: 96.7%
[2]; Homo sapiens, read-out: cell viability, 501Mel XP, 10μΜ
  viability at 10 µM: 86.6%
A375 cells (parental); Homo sapiens, A-375, 72 h, read-out: cell viability, A375 Parental, 1μΜ
  viability at 1 µM: 103%
A375 cells (parental); Homo sapiens, A-375, 72 h, read-out: cell viability, A375 Parental, 10μΜ
  viability at 10 µM: 95.5%
[3]; Homo sapiens, A-375, 72 h, read-out: cell viability, A375 GP, 1μΜ
  viability at 1 µM: 103%
[3]; Homo sapiens, A-375, 72 h, read-out: cell viability, A375 GP, 10μΜ
  viability at 10 µM: 85.4%
[4]; Homo sapiens, A-375, 72 h, read-out: cell viability, A375 XP, 1μΜ
  viability at 1 µM: 103%
[4]; Homo sapiens, A-375, 72 h, read-out: cell viability, A375 XP, 10μΜ
  viability at 10 µM: 98.5%
IGR37 cells (parental); Homo sapiens, IGR-37, 72 h, read-out: cell viability, IGR37 Parental, 1μΜ
  viability at 1 µM: 99.2%
IGR37 cells (parental); Homo sapiens, IGR-37, 72 h, read-out: cell viability, IGR37 Parental, 10μΜ
  viability at 10 µM: 109%
[5]; Homo sapiens, IGR-37, 72 h, read-out: cell viability, IGR37 GP, 1μΜ
  viability at 1 µM: 91%
[5]; Homo sapiens, IGR-37, 72 h, read-out: cell viability, IGR37 GP, 10μΜ
  viability at 10 µM: 93.3%
[6]; Homo sapiens, IGR-37, 72 h, read-out: cell viability, IGR37 XP, 1μΜ
  viability at 1 µM: 107%
[6]; Homo sapiens, IGR-37, 72 h, read-out: cell viability, IGR37 XP, 10μΜ
  viability at 10 µM: 71.5%

## CN(C)Cc1cccc(N/C(=C2\C(=O)Nc3cc(C(=O)N(C)C)ccc32)c2ccccc2)c1 [BIX 02189]
501Mel cells (parental); 501Mel Parental, 1μΜ, in %
  cell viability, 501Mel Parental, 1μΜ: 89.4
501Mel cells (parental); 501Mel Parental, 10μΜ, in %
  cell viability, 501Mel Parental, 10μΜ: 89.0
[1]; 501Mel GP, 10μΜ, in %
  cell viability, 501Mel GP, 10μΜ: 90.2
[2]; 501Mel XP, 1μΜ, in %
  cell viability, 501Mel XP, 1μΜ: 98.8
[2]; 501Mel XP, 10μΜ, in %
  cell viability, 501Mel XP, 10μΜ: 82.6
A375 cells (parental); A375 Parental, 10μΜ, 72 h, in %
  cell viability, A375 Parental, 10μΜ: 86.5
[3]; A375 GP, 1μΜ, 72 h, in %
  cell viability, A375 GP, 1μΜ: 99.5
[3]; A375 GP, 10μΜ, 72 h, in %
  cell viability, A375 GP, 10μΜ: 79.8
[4]; A375 XP, 1μΜ, 72 h, in %
  cell viability, A375 XP, 1μΜ: 99.2
[4]; A375 XP, 10μΜ, 72 h, in %
  cell viability, A375 XP, 10μΜ: 88.6
IGR37 cells (parental); [7]
  cell viability, IGR37 Parental, 1μΜ: 100.1
[5]; IGR37 GP, 10μΜ, 72 h
  cell viability, IGR37 GP, 10μΜ: 85.5%
[5]; IGR37 GP, 1μΜ, 72 h, in %
  cell viability, IGR37 GP, 1μΜ: 92.6
[6]; IGR37 XP, 10μΜ, 72 h
  cell viability, IGR37 XP, 10μΜ: 54.9%
[6]; IGR37 XP, 1μΜ, 72 h, in %
  cell viability, IGR37 XP, 1μΜ: 96.6

## Nc1cc(C(F)(F)F)c(-c2cc(N3CCOCC3)nc(N3CCOCC3)n2)cn1 [BKM120 (Buparlisib)]
501Mel cells (parental); 501Mel Parental, 1μΜ, in %
  Cell viability in kinase inhibitor library screening, 501Mel Parental, 1μΜ: 71.1
501Mel cells (parental); 501Mel Parental, 10μΜ, in %
  Cell viability in kinase inhibitor library screening, 501Mel Parental, 10μΜ: 10.8
[1]; 501Mel GP, 1μΜ, in %
  Cell viability in kinase inhibitor library screening, 501Mel GP, 1μΜ: 60.8
[1]; 501Mel GP, 10μΜ, in %
  Cell viability in kinase inhibitor library screening, 501Mel GP, 10μΜ: 9.6
[2]; 501Mel XP, 1μΜ, in %
  Cell viability in kinase inhibitor library screening, 501Mel XP, 1μΜ: 54.8
[2]; 501Mel XP, 10μΜ, in %
  Cell viability in kinase inhibitor library screening, 501Mel XP, 10μΜ: 3.6
A375 cells (parental); A375 Parental, 10μΜ, 72 h
  Cell viability in kinase inhibitor library screening, A375 Parental, 10μΜ: 9.8
A375 cells (parental); A375 Parental, 1μΜ, 72 h
  Cell viability in kinase inhibitor library screening, A375 Parental, 1μΜ: 67.0
[3]; A375 GP, 1μΜ, 72 h
  Cell viability in kinase inhibitor library screening, A375 GP, 1μΜ: 59.6
[3]; A375 GP, 10μΜ, 72 h
  Cell viability in kinase inhibitor library screening, A375 GP, 10μΜ: 7.7
[4]; A375 XP, 1μΜ, 72 h
  Cell viability in kinase inhibitor library screening, A375 XP, 1μΜ: 70.4
[4]; A375 XP, 10μΜ, 72 h
  Cell viability in kinase inhibitor library screening, A375 XP, 10μΜ: 10.0
IGR37 cells (parental); [7]
  Cell viability in kinase inhibitor library screening, IGR37 Parental, 1μΜ: 91.7
IGR37 cells (parental); IGR37 Parental, 10μΜ, 72 h, in %
  Cell viability in kinase inhibitor library screening, IGR37 Parental, 10μΜ: 30.3
[5]; IGR37 GP, 10μΜ, 72 h
  Cell viability in kinase inhibitor library screening, IGR37 GP, 10μΜ: 20.9%
[5]; IGR37 GP, 1μΜ, 72 h, in %
  Cell viability in kinase inhibitor library screening, IGR37 GP, 1μΜ: 82.3
[6]; IGR37 XP, 10μΜ, 72 h
  Cell viability in kinase inhibitor library screening, IGR37 XP, 10μΜ: 7.4%
[6]; IGR37 XP, 1μΜ, 72 h, in %
  Cell viability in kinase inhibitor library screening, IGR37 XP, 1μΜ: 78.7

## CCOc1ccn(-c2ccc(F)cc2)c(=O)c1C(=O)Nc1ccc(Oc2ccnc(N)c2Cl)c(F)c1 [BMS 777607]
501Mel cells (parental); 501Mel Parental, 1μΜ
  cell viability (kinase inhibitor library screening): 88.2%
501Mel cells (parental); 501Mel Parental, 10μΜ
  cell viability (kinase inhibitor library screening): 68.4%
[1]; 501Mel GP, 10μΜ
  cell viability (kinase inhibitor library screening): 53.2%
[2]; 501Mel XP, 1μΜ
  cell viability (kinase inhibitor library screening): 72.2%
[2]; 501Mel XP, 10μΜ
  cell viability (kinase inhibitor library screening): 37.4%
A375 cells (parental); A375 Parental, 10μΜ, 72 h
  cell viability (kinase inhibitor library screening): 42.4%
A375 cells (parental); A375 Parental, 1μΜ, 72 h
  cell viability (kinase inhibitor library screening): 99.9%
[3]; A375 GP, 10μΜ, 72 h
  cell viability (kinase inhibitor library screening): 45.4%
[4]; A375 XP, 10μΜ, 72 h
  cell viability (kinase inhibitor library screening): 66.5%
IGR37 cells (parental); IGR37 Parental, 1μΜ, 72 h
  cell viability (kinase inhibitor library screening): 97.6%
IGR37 cells (parental); IGR37 Parental, 10μΜ, 72 h
  cell viability (kinase inhibitor library screening): 81.6%
[5]; IGR37 GP, 1μΜ, 72 h
  cell viability (kinase inhibitor library screening): 87.2%
[5]; IGR37 GP, 10μΜ, 72 h
  cell viability (kinase inhibitor library screening): 82.2%
[6]; IGR37 XP, 1μΜ, 72 h
  cell viability (kinase inhibitor library screening): 91.2%
[6]; IGR37 XP, 10μΜ, 72 h
  cell viability (kinase inhibitor library screening): 46.6%
